Experimental data reported in patent US7138421B2, “Anti-androgenic pyrrolidines with tumor-inhibiting action” (Schring Aktiengesellschaft, priority 2003, dated 2006).
Where two headings read alike, the source gives them in different places.

Legend:
androgen receptor = biological target: T1, androgen receptor (Homo sapiens, UniProt P10275, T878A); format: cell-based; details: LNCaP cells, 48 h, 10 μM, % of DMSO control
T1 construct: Destabilization of AR in LNCaP Cells by Test Substances; endogenous in cells; host or cells: LNCaP (human prostate cell line)
T1 sequence (P10275 1-920 T878A): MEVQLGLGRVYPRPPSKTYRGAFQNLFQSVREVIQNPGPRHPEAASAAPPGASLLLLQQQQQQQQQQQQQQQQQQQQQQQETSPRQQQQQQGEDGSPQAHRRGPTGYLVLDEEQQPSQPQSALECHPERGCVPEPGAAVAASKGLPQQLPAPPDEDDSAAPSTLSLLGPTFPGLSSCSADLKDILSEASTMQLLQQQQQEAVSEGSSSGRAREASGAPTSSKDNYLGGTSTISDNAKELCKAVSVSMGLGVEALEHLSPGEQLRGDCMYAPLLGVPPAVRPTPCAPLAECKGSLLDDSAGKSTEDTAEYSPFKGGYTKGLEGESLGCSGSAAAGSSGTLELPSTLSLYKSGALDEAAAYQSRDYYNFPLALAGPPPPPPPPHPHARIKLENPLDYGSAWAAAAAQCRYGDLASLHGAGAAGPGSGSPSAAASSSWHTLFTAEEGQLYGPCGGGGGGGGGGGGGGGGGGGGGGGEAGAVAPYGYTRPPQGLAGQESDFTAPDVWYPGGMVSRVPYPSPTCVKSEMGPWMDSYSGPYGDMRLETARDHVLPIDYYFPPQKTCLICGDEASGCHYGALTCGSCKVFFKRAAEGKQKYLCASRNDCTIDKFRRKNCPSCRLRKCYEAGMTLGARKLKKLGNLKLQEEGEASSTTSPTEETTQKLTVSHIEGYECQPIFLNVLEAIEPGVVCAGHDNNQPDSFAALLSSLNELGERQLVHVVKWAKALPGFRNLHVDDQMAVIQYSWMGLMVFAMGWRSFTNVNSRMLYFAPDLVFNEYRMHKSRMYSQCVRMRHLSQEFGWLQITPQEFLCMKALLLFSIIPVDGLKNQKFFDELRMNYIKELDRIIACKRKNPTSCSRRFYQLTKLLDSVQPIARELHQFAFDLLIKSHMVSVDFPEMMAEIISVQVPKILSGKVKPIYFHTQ

LNCaP cells = experiment: Inhibition of the proliferation of LNCaP cells (crystal violet assay); format: cell-based, human; details: for inhibition at 1 µM: read-out: % Inhibition at 1 μM, 1 μM test substance, compared to cell growth in the presence of 0.1 nmol of R1881; for IC50: 7 to 8 days
Method: For the proliferation assay, 6000 LNCaP cells/well (Horoszewicz et al. Cancer Res. 1983, 43, 1809–1817) in a microtiter plate (96-well) in 50 μl of RPMI1640 medium are grown with 5% CCS and cultivated as in Model 1. After 24 hours, the cells receive 50 μl of 2×-concentrated test substance, diluted in culture medium. The solvent concentration is 0.5% DMSO. After 4 days, the cells receive another 100 μl of 1×-concentrated test substance, diluted in culture medium. After 7 to 8 days, the proliferation rate of the cells is determined by means of crystal violet assay (Gillies et al. Anal. Biochem. 1986, 159, 109–113). To determine the antagonism, the substance treatment is performed in the presence of […] of R1881 (1:1000 dilution of ethanolic solution). Control cells receive only 0.5% DMSO. For the agonism, the cells are treated only with test substance (without R1881).

[1] = Pharmacokinetics in rats after intravenous and peroral administration; format: in vivo; details: rat, serum; for Vd / clearance: intravenous; for Vd: read-out: Distribution Volume Vdss; for clearance: read-out: Systemic Serum Clearance CL; for Tmax: read-out: Absorption Tmax
Text: Model 4: Pharmacokinetics in Rats After Intravenous and Peroral Administration
The pharmacokinetic properties of the compounds according to the invention were studied in Examples 1: 4-[4,4-dimethyl-5-oxo-3-[8-(pyrrolidin-1-yl)octyl]-2-thioxoimidazolidin-1-yl]-2-(trifluoromethyl)benzonitrile and 11: 4-[3-[8-[(2S)-2-(hydroxymethyl)pyrrolidin-1-yl]octyl]-4,4-dimethyl-5-oxo-2-thioxoimidazolidin-1-yl]-2-(trifluoromethyl)benzonitrile.

seminal vesicles = experiment: Anti-androgenic action on testosterone-stimulated growth of the seminal vesicles of castrated mice; format: in vivo, mouse; details: 1× daily, 7 days, castrated mice with testosterone propionate
Method: The function and the size of accessory reproductive glands (prostate and seminal vesicles) depend on androgens. In castrated animals, a growth of these organs is induced by the administration of androgen. Simultaneous treatment with anti-androgens inhibits this growth in a dose-dependent manner. For the examination of test substances, the mice were castrated. On the same day, treatment with testosterone propionate (0.03 mg/mouse) and the test substances (1× daily 10 or 30 mg/kg p.o. in benzyl benzoate-castor oil or ethanol/peanut oil (10:90)) was formulated. The treatment was carried out over 7 days and at the end of the test, the weights of the seminal vesicles and prostate were determined. The inhibition of the seminal vesicle growth, in percent, was calculated in reference to the control groups (with and without testosterone). As a reference substance, cyproterone acetate (30 mg/kg s.c. and p.o.) was used.

[2] = Homo sapiens, LNCaP, read-out: IC50 inhibition of the proliferation of LNCaP cells, in the presence of 0.1 nmol of R1881
[3] = iv, read-out: Half-Life i.v. T1/2 (converted)
[4] = po, read-out: Half-Life p.o. T1/2 (converted)

SMILES | AR Content at 10 μM (androgen receptor) [%] | inhibition at 1 µM (LNCaP cells; Homo sapiens, LNCaP) [%] | IC50 (LNCaP cells; [2]) [nM] | Vd [1] [L/kg] | clearance [1] [mL/min/kg] | half-life [1, 3] [h] | bioavailability ([1]; po) [%] | Tmax ([1]; po) [h] | half-life [1, 4] [h] | % Inhibition of MSB Growth (seminal vesicles; 10 mg/kg p.o.) [%] | % Inhibition of MSB Growth (seminal vesicles; 30 mg/kg p.o.) [%] | % Inhibition at 1 μM (LNCaP cells; 1 μM test substance, compared to cell growth in the presence of 0.1 nmol of R1881) [%] | IC50 (LNCaP cells; read-out: IC50 inhibition of the proliferation of LNCaP cells, in the presence of 0.1 nmol of R1881, hydrochloride) [nM]
CC1(C)C(=O)N(c2ccc(C#N)c(C(F)(F)F)c2)C(=S)N1CCCCCCCCN1CCCC1 [Example 1, 4-[4,4-Dimethyl-5-oxo-3-[8-(pyrrolidin-1-yl)octyl]-2-thioxoimidazolidin-1-yl]-2-(trifluoromethyl)benzonitrile] | 63 | 98 | 45 | 37 | 76 | 5.6 | 72 | 5 | 6.1 | 82 | 99 | – | –
CC1(C)C(=O)N(c2ccc(C#N)c(C(F)(F)F)c2)C(=S)N1CCCCCCCCN1CCCC1.Cl [Example 2, 4-[4,4-Dimethyl-5-oxo-3-[8-(pyrrolidin-1-yl)octyl]-2-thioxoimidazolidin-1-yl]-2-(trifluoromethyl)benzonitrile hydrochloride] | 50 | – | – | – | – | – | – | – | – | – | 95 | 100 | 41
CC1(C)C(=O)N(c2ccc(C#N)c(C(F)(F)F)c2)C(=S)N1CCCCCCCCN1CCC[C@@H]1CO [Example 10, 4-[3-[8-[(2R)-2-(Hydroxymethyl)pyrrolidin-1-yl]octyl]-4,4-dimethyl-5-oxo-2-thioxoimidazolidin-1-yl]-2-(trifluoromethyl)benzonitrile] | – | 101 | < 10 | – | – | – | – | – | – | 87 | – | – | –
CC1(C)C(=O)N(c2ccc(C#N)c(C(F)(F)F)c2)C(=S)N1CCCCCCCCN1CCC[C@H]1CO [Example 11, 4-[3-[8-[(2S)-2-(Hydroxymethyl)pyrrolidin-1-yl]octyl]-4,4-dimethyl-5-oxo-2-thioxoimidazolidin-1-yl]-2-(trifluoromethyl)benzonitrile] | 50 | 102 | 13 | 11 | 20 | 5.7 | 65 | 7 | 8 | – | 95 | – | –
